In brackets after ≈: the same amount, converted by molar mass. Entries after “also recorded” stand apart in the source; their conditions may differ.
Legend:
[1] = test system: C. parapsilosis ATCC 22019; assay: microbe, parasite or virus in culture; assay type: cell-based
In short: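 Aspergillus MEC and yeast MIC determined by 2-fold broth dilution in RPMI pH 7.0; plates incubated 35° C. until growth wells confluent (~24-48 hr), then read from below for growth inhibition or hyphal morphology change.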

[2] = test system: Aspergillus fumigatus strain AF293; assay: Microfluidic Aspergillus fumigatus Killing Assay with human neutrophils; assay type: cell-based; conditions: for percent hyphal growth compared to remaining conidia (FIG. 2): with added neutrophils (NFs), Compound 1, Compound 11, caspofungin acetate 10 nM, fMLP 100 nM, hyphae by 18 hours; for timecourse of A. fumigatus (Af) growth in FCCs (FIG. 4): in presence of PMNs, three healthy blood donors, t=0, 8, and 16 hours
Source text: Microfluidic devices used to measure leukocyte migration in response to Aspergillus fumigatus with or without drug (Compound 1 or Compound 11), antifungal control (caspofungin acetate) and/or chemoattractant (fMLP) were manufactured using known microfabrication techniques. Two layers of photoresist (SU8; Microchem), the first one 10 μm thin (corresponding to the migration channels) and the second one 70 μm thick, corresponding to the focal chemotactic chambers (FCCs) were patterned on one silicon wafer sequentially using two photolithographic masks and processing cycles according to the instructions from the manufacturer. The wafer with patterned photoresist was used as a mold to produce polydimethylsiloxane (PDMS) (Fisher Scientific) devices, which were then bonded to the base of glass-bottom 12- or 24-well plates, using an oxygen plasma machine (Nordson-March).
Aspergillus fumigatus strain AF293 expressing either cytosolic red fluorescent protein (RFP) or green fluorescent protein (GFP) was grown on Sabouraud dextrose agar plates supplemented with 100 μg/mL ampicillin at 30° C. for 3-4 days. Conidia were harvested by gentle scraping followed by washing in ice-cold phosphate buffered saline (PBS) three times. Conidia were immediately used or stored at 4° C. for use within one week.
De-identified, fresh human blood samples from healthy volunteers, aged 18 years and older, who were not receiving immunosuppressants, were purchased from Research Blood Components, LLC. Peripheral blood was drawn in tubes containing a final concentration of 5 mM EDTA (Vacutainer; Becton Dickinson) and processed within 2 h of blood collection. Using a sterile technique, neutrophils were isolated from whole blood using HetaSep followed by the EasySep Human Neutrophil Enrichment Kit ([…] Technologies) following the manufacturer's protocol. The purity of neutrophils was assessed to be >98% using the Sysmex KX-21N Hematology Analyzer (Sysmex America, Inc.). White blood cells were isolated using Hetasep followed by a 5 min spin down and wash with 1×PBS. White blood cells were stained with Hoechst (32.4 μM) (Sigma) following the manufacture's protocols. The final aliquots of white blood cells were resuspended in RPMI plus 10% fetal bovine serum (FBS−stock 50 mL FBS/450 mL RPMI) (Sigma-Aldrich) at a concentration of 20,000 cells/2 μL and kept at 37° C. Cells were then immediately introduced into the microfluidic device for the chemotaxis and Aspergillus fumigatus killing assay. All experiments were repeated at least three times with neutrophils or white blood cells from three different healthy donors.
Immediately after bonding to the well plate, donut-shaped devices were filled with Aspergillus fumigatus conidia at a concentration of 10^6 cells/mL with or without either Compound 1 or Compound 11 [10 nM], caspofungin acetate [10 nM] and/or a solution of the chemoattractant N-formyl-methionyl-leucyl-phenylalanine (fMLP) [100 nM](Sigma-Aldrich, St. Louis, Mo.). The device was then placed in a vacuum for 15 min. The solution filled all of the FCCs as the air was displaced. The devices were then vigorously washed five times with 1×PBS to remove any residual Aspergillus fumigatus conidia, drug or chemoattractant that was outside of the FCCs. The device was then submerged in 0.5 mL of cell media. Neutrophils or white blood cells (20,000 cells/2 μL) were then pipetted into the cell loading chamber (CLC) using a gel-loading pipette tip. Neutrophil migration into the migration channel toward the FCC started immediately and was recorded using time-lapse imaging on a fully automated Nikon TiE microscope (10× magnification) with biochamber heated to 37° C. with 5% carbon dioxide gas. Image analysis of cell migration counts and fungi growth was analyzed by hand using Image J software.
Image analysis of cell migration counts and fungi growth was analyzed by hand using Image J software.

Row | Molecule | MIC ([1]; ATCC 22019, pH 7) | percent hyphal growth compared to remaining conidia (FIG. 2) [2] | timecourse of A. fumigatus (Af) growth in FCCs (FIG. 4) [2] | MIC ([1]; C. parapsilosis ATCC 22019, RPMI pH 7.0, 35° C., 24-48 hr)
1 | CC[C@H](C)C[C@H](C)CCCCCCCCC(=O)N[C@H]1C[C@@H](O)[C@@H](NCCN)NC(=O)[C@@H]2[C@@H](O)CCN2C(=O)[C@H]([C@H](O)CCNC(=O)[C@H](Cc2ccccc2)NC(=O)[C@H](CC(C)C)NC(=O)[C@H](CCSC)NC=O)NC(=O)[C@H]([C@H](O)[C@@H](O)c2ccc(O)cc2)NC(=O)[C@@H]2C[C@@H](O)CN2C(=O)[C@H]([C@@H](C)O)NC1=O [Compound 1] | 16 µg/mL (≈ 10.6 µM) | inhibition of Aspergillus fumigatus hyphal growth; also recorded: able to suppress hyphal growth | – | –
2 | CC[C@H](C)C[C@H](C)CCCCCCCCC(=O)N[C@H]1C[C@@H](O)[C@@H](OCCN)NC(=O)[C@@H]2[C@@H](O)CCN2C(=O)[C@H]([C@H](O)CCNC(=O)[C@H](Cc2ccccc2)NC(=O)[C@H](CC(C)C)NC(=O)[C@H](CCSC)NC=O)NC(=O)[C@H]([C@H](O)[C@@H](O)c2ccc(O)cc2)NC(=O)[C@@H]2C[C@@H](O)CN2C(=O)[C@H]([C@@H](C)O)NC1=O [Compound 11] | 32 µg/mL (≈ 21.1 µM) | inhibition of Aspergillus fumigatus hyphal growth; also recorded: able to suppress hyphal growth | inhibition of growth of Af | –
3 | caspofungin acetate [reference compound] | – | – | growth of Af | 0.5 to 1 µg/mL

From patent publication US20160213742A1, “COMPOSITIONS AND METHODS FOR THE TREATMENT OF FUNGAL INFECTIONS” (priority 2013, published 2016)
